Test results taken from US12325697B2 (Nimbus Clio, Inc., priority 2021, dated 2025).

Columns and labels:
[1] = target: Recombinant human Cbl-b (aa 36-427) (Homo sapiens (Human), UniProt Q13191); assay: Cbl-b Biochemical Assay (TR-FRET); settings: read-out: TR-FRET hCbl-b IC50
In short: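 Two-step TR-FRET: 6 nM biotinylated Cbl-b preincubated 30-60 min with compound, then 60 min at RT with 1-2.5 nM Src-Zap70 and 0.5 mM ATP in HEPES pH 7.0 buffer, 1% DMSO. Stopped with 5 mM EDTA plus 100 nM UBE2D2-Ub-FL-BODIPY and 1 nM streptavidin-Tb, 60 min; 520 nm signal; IC50 from 4-parameter fit.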

[2] = target: Recombinant human c-Cbl (aa 47-435) (Homo sapiens (Human), UniProt P22681); assay: c-Cbl Biochemical Assay (TR-FRET)
Protocol: Recombinant human c-Cbl (aa 47-435) was expressed in E. coli, purified and biotinylated in vitro. The protein was diluted to 12 nM in freshly prepared assay buffer consisting of 50 mM HEPES, pH 7.0, 100 mM NaCl, 5 mM MgCl2, 0.01% Triton-X 100, 0.01% BSA and 1 mM DTT. Recombinant human Src (aa 254-536)-[…]-Zap-70 (aa 281-297) fusion protein was expressed in E. coli and purified. Protein was diluted in assay buffer to 5-20 nM and ATP was added to 1 mM. Recombinant human UBE2D2([…]) was expressed in E. coli, purified and ubiquitinated and Bodipy labelled in vitro. Protein was diluted to 200 nM in assay buffer without MgCl2 (or Cisbio PPI buffer). Streptavidin-Terbium was added to 2 nM and EDTA to 10 mM, to provide a binding assay mix. Compounds were dissolved in DMSO and diluted to prepare a ten-point half log dilution series. 100 nl of each compound concentration was dispensed in duplicate in a 384 well black assay plate using acoustic dispensing. Wells for maximum signal controls received 100 nl of DMSO only and wells for minimum controls received 100 nl of a reference inhibitor compound at a final assay concentration of […] to produce 100% inhibition. 5 μl of diluted c-cbl enzyme was added to all wells of the assay plate and incubated at RT for 30 min. The enzyme assay was initiated by addition of 5 μl of Src-Zap/ATP mix to all wells, and the plate incubated at RT for 60-90 min. The enzyme reaction was terminated and the binding reaction was initiated by adding 10 μl of binding assay mix to all wells and incubating the plate at RT for 60 min prior to assay read. Final assay conditions consisted of 6 nM c-cbl, 2.5-10 nM Src-Zap70, 0.5 mM ATP, 1% (v/v) DMSO (enzyme reaction) and 100 nM UBE2D2([…])-Ub-FL-BODIPY, 5 mM EDTA, 1 nM Streptavidin-Tb (binding reaction). The HTRF assay signal was measured at 520 nm on an Envision plate reader, with reference signal at 485 or 620 nm. Data was normalized using maximum and minimum assay controls: % Inhibition=100-(100*((maximum control)-unknown)/(maximum control-minimum control)). A 4-parameter dose-response equation was used to fit the normalized dose-response data and derive an IC50 for test compounds.

Chain of Recombinant human Cbl-b (aa 36-427) (Q13191 36-427): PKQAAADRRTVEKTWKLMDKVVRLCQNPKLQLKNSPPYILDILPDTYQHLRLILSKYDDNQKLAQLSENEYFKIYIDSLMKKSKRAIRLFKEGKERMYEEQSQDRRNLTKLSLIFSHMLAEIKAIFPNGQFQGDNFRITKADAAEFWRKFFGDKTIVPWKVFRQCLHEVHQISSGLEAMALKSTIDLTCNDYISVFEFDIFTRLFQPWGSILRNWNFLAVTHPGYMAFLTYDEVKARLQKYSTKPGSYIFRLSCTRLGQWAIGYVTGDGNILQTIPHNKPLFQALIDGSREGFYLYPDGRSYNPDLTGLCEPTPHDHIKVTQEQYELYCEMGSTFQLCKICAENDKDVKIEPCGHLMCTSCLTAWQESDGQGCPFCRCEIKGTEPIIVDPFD
Chain of Recombinant human c-Cbl (aa 47-435) (P22681 47-435): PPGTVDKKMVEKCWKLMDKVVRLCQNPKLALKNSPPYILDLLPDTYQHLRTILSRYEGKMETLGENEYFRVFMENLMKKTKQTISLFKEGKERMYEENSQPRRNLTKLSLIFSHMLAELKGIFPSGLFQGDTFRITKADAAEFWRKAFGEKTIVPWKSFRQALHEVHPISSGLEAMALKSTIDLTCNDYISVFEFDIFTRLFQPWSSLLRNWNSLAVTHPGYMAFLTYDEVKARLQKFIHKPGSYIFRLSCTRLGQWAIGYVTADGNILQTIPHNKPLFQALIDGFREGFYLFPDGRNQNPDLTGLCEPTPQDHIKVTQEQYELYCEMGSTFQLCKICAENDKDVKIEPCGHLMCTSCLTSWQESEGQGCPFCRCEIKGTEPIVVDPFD

SMILES: CCOc1cc(-c2ccc(C#N)cc2-c2nncn2C)cc(N2Cc3ccc(CO)cc3C2=O)n1 [AKX-1, 4-{2-Ethoxy-6-[6-(hydroxymethyl)-1-oxo-3H-isoindol-2-yl]pyridin-4-yl}-3-(4-methyl-1,2,4-triazol-3-yl)benzonitrile]
- IC50 [1]: ≤ 200 nM
- IC50 [2]: 200 to 1000 nM

SMILES: COC[C@H](C)NCc1ccc2c(c1)C(=O)N(c1cc(-c3ccc(C#N)cc3-c3nncn3C)cc(C3CC3)n1)C2 [AIR-2, (S)-4-(2-cyclopropyl-6-(6-(((1-methoxypropan-2-yl)amino)methyl)-1-oxoisoindolin-2-yl)pyridin-4-yl)-3-(4-methyl-4H-1,2,4-triazol-3-yl)benzonitrile]
- IC50 [1]: ≤ 200 nM
- IC50 [2]: ≤ 200 nM

SMILES: CO[C@@H](C)[C@H](C)NCc1cc(F)c2c(c1)C(=O)N(c1cc(-c3ccc(C#N)cc3-c3nncn3C)cc(C3CC3)n1)C2 [AMD-2, 4-{2-Cyclopropyl-6-[4-fluoro-6-({[(2S,3S)-3-methoxybutan-2-yl]amino}methyl)-1-oxo-3H-isoindol-2-yl]pyridin-4-yl}-3-(4-methyl-1,2,4-triazol-3-yl)benzonitrile]
- IC50 [1]: ≤ 200 nM
- IC50 [2]: ≤ 200 nM

SMILES: Cn1cnnc1-c1cc(C#N)ccc1-c1cc(C2CC2)nc(N2Cc3ccc(CNC4CCOC4)cc3C2=O)c1 (stereo in doubt) [ANP-2, 4-[2-Cyclopropyl-6-(1-oxo-6-{[(3S)-oxolan-3-ylamino]methyl}-3H-isoindol-2-yl)pyridin-4-yl]-3-(4-methyl-1,2,4-triazol-3-yl)benzonitrile]
- IC50 [1]: ≤ 200 nM
- IC50 [2]: ≤ 200 nM

SMILES: COC(C)(C)CNCc1ccc2c(c1)C(=O)N(c1cc(-c3ccc(C#N)cc3-c3nncn3C)cc(C3CC3)n1)C2 [AIW-2, 4-[2-Cyclopropyl-6-(6-{[(2-methoxy-2-methylpropyl)amino]methyl}-1-oxo-3H-isoindol-2-yl)pyridin-4-yl]-3-(4-methyl-1,2,4-triazol-3-yl)benzonitrile]
- IC50 [1]: ≤ 200 nM
- IC50 [2]: ≤ 200 nM

SMILES: Cn1cnnc1-c1cc(C#N)ccc1-c1cc(C2CC2)nc(N2Cc3ccc(CNCC4CCCC4)cc3C2=O)c1 [AIG-1, 4-[2-(6-{[(Cyclopentylmethyl)amino]methyl}-1-oxo-3H-isoindol-2-yl)-6-cyclopropylpyridin-4-yl]-3-(4-methyl-1,2,4-triazol-3-yl)benzonitrile]
- IC50 [1]: ≤ 200 nM
- IC50 [2]: ≤ 200 nM

SMILES: Cn1cnnc1-c1cc(C#N)ccc1-c1cc(C2CC2)nc(N2Cc3ccc(CNC4CC4)cc3C2=O)c1 [ALQ-2, 4-(2-Cyclopropyl-6-{6-[(cyclopropylamino)methyl]-1-oxo-3H-isoindol-2-yl}pyridin-4-yl)-3-(4-methyl-1,2,4-triazol-3-yl)benzonitrile]
- IC50 [1]: ≤ 200 nM
- IC50 [2]: ≤ 200 nM

SMILES: Cn1cnnc1-c1cc(C#N)ccc1-c1cc(C2CC2)nc(N2Cc3c(F)cc(CN4CC[C@H]5OCC[C@H]54)cc3C2=O)c1 (single isomer, unassigned) [ANH-1]
- IC50 [1]: ≤ 200 nM
- IC50 [2]: ≤ 200 nM

SMILES: CO[C@@H](C)CNCc1cc(F)c2c(c1)C(=O)N(c1cc(-c3ccc(C#N)cc3-c3nncn3C)cc(C3CC3)n1)C2 [AKW-1, 4-{2-Cyclopropyl-6-[4-fluoro-6-({[(2S)-2-methoxypropyl]amino}methyl)-1-oxo-3H-isoindol-2-yl]pyridin-4-yl}-3-(4-methyl-1,2,4-triazol-3-yl)benzonitrile]
- IC50 [1]: ≤ 200 nM
- IC50 [2]: ≤ 200 nM

SMILES: Cn1cnnc1-c1cc(C#N)ccc1-c1cc(C2CC2)nc(N2Cc3ccc(CNC4COC4)cc3C2=O)c1 [AMV-2, 4-(2-Cyclopropyl-6-{6-[(oxetan-3-ylamino)methyl]-1-oxo-3H-isoindol-2-yl}pyridin-4-yl)-3-(4-methyl-1,2,4-triazol-3-yl)benzonitrile]
- IC50 [1]: ≤ 200 nM
- IC50 [2]: ≤ 200 nM

SMILES: COC[C@H](C)NCc1cc(F)c2c(c1)C(=O)N(c1cc(-c3ccc(C#N)cc3-c3nncn3C)cc(C3CC3)n1)C2 [AKG-1, 4-{2-Cyclopropyl-6-[4-fluoro-6-({[(2S)-1-methoxypropan-2-yl]amino}methyl)-1-oxo-3H-isoindol-2-yl]pyridin-4-yl}-3-(4-methyl-1,2,4-triazol-3-yl)benzonitrile]
- IC50 [1]: ≤ 200 nM
- IC50 [2]: ≤ 200 nM

SMILES: CCNc1cnc(N2Cc3c(cc(CO)cc3C(F)(F)F)C2=O)cc1-c1ccc(F)cc1-c1nncn1C [AHN-9, 2-(5-(Ethylamino)-4-(4-fluoro-2-(4-methyl-4H-1,2,4-triazol-3-yl)phenyl)pyridin-2-yl)-6-(hydroxymethyl)-4-(trifluoromethyl)isoindolin-1-one]
- IC50 [1]: 10000 to 50000 nM
- IC50 [2]: 10000 to 50000 nM

SMILES: CC[C@H](O)CNCc1ccc2c(c1)C(=O)N(c1cc(-c3ccc(C#N)cc3-c3nncn3C)cc(C3CC3)n1)C2 [AJA-2, (S)-4-(2-Cyclopropyl-6-(6-(((2-hydroxybutyl)amino)methyl)-1-oxoisoindolin-2-yl)pyridin-4-yl)-3-(4-methyl-4H-1,2,4-triazol-3-yl)benzonitrile]
- IC50 [1]: ≤ 200 nM
- IC50 [2]: ≤ 200 nM

SMILES: Cn1cnnc1-c1cc(C#N)ccc1-c1cc(C2CC2)nc(N2Cc3c(F)cc(CNCC4(F)CCC4)cc3C2=O)c1 [AKK-1, 4-{2-Cyclopropyl-6-[4-fluoro-6-({[(1-fluorocyclobutyl)methyl]amino}methyl)-1-oxo-3H-isoindol-2-yl]pyridin-4-yl}-3-(4-methyl-1,2,4-triazol-3-yl)benzonitrile]
- IC50 [1]: ≤ 200 nM
- IC50 [2]: ≤ 200 nM

SMILES: COC[C@@H](C)NCc1ccc2c(c1)C(=O)N(c1cc(-c3ccc(C#N)cc3-c3nncn3C)cc(C3CC3)n1)C2 [AIK-2, 4-{2-Cyclopropyl-6-[6-({[(2R)-1-methoxypropan-2-yl]amino}methyl)-1-oxo-3H-isoindol-2-yl]pyridin-4-yl}-3-(4-methyl-1,2,4-triazol-3-yl)]
- IC50 [1]: ≤ 200 nM
- IC50 [2]: ≤ 200 nM

SMILES: Cn1cnnc1-c1cc(C#N)ccc1-c1cc(C2CC2)nc(N2Cc3ccc(CNCC4(C#N)CCC4)cc3C2=O)c1 [AKF-2, 4-{2-[6-({[(1-Cyanocyclobutyl)methyl]amino}methyl)-1-oxo-3H-isoindol-2-yl]-6-cyclopropylpyridin-4-yl}-3-(4-methyl-1,2,4-triazol-3-yl)benzonitrile]
- IC50 [1]: ≤ 200 nM
- IC50 [2]: ≤ 200 nM

SMILES: COCCNCc1ccc2c(c1)C(=O)N(c1cc(-c3ccc(C#N)cc3-c3nncn3C)cc(C3CC3)c1)C2 [AJQ-2, 3′-Cyclopropyl-5′-(6-(((2-methoxyethyl)amino)methyl)-1-oxoisoindolin-2-yl)-2-(4-methyl-4H-1,2,4-triazol-3-yl)-[1,1′-biphenyl]-4-carbonitrile]
- IC50 [1]: ≤ 200 nM
- IC50 [2]: ≤ 200 nM

SMILES: COCCN(C)Cc1cc(F)c2c(c1)C(=O)N(c1cc(-c3ccc(C#N)cc3-c3nncn3C)cc(C3CC3)n1)C2 [ANT-1, 4-[2-Cyclopropyl-6-(4-fluoro-6-{[(2-methoxyethyl)(methyl)amino]methyl}-1-oxo-3H-isoindol-2-yl)pyridin-4-yl]-3-(4-methyl-1,2,4-triazol-3-yl)benzonitrile]
- IC50 [1]: ≤ 200 nM
- IC50 [2]: ≤ 200 nM

SMILES: Cn1cnnc1-c1cc(C#N)ccc1-c1cc(C2CC2)nc(N2Cc3ccc(C(C)(C)N)cc3C2=O)c1 [ALK-9, 4-{2-[6-(2-Aminopropan-2-yl)-1-oxo-3H-isoindol-2-yl]-6-cyclopropylpyridin-4-yl}-3-(4-methyl-1,2,4-triazol-3-yl)benzonitrile]
- IC50 [1]: ≤ 200 nM
- IC50 [2]: ≤ 200 nM

SMILES: CCOc1cc(-c2ccc(F)cc2-c2nncn2C)cc(N2Cc3ccc(CO)cc3C2=O)n1 [ANS-1]
- IC50 [2]: 200 to 1000 nM

SMILES: CCNc1cc(-c2ccccc2-c2nncn2C)cc(N2Cc3c(cc(CN4CCO[C@H](C)C4)cc3C(F)(F)F)C2=O)n1 [AN-1, (R)-2-(6-(Ethylamino)-4-(2-(4-methyl-4H-1,2,4-triazol-3-yl)phenyl)pyridin-2-yl)-6-((2-methylmorpholino)methyl)-4-(trifluoromethyl)isoindolin-1-one]
- IC50 [1]: ≤ 200 nM

SMILES: Cn1cnnc1-c1ccncc1-c1cccc(N2Cc3c(cccc3C(F)(F)F)C2=O)c1 [ABB-5, 2-[3-[4-(4-Methyl-1,2,4-triazol-3-yl)pyridin-3-yl]phenyl]-4-(trifluoromethyl)-3H-isoindol-1-one]
- IC50 [1]: 1000 to 10000 nM
